Measured values published in patent publication US10597388B2, “Pyridazinone herbicides” (FMC CORPORATION, priority 2014, dated 2020).

Key:
Assay in all cases: Test D controlled growth environment herbicide test, pre- and postemergence
Assay type in all cases: in vivo
[1] = test system: barley, spring (spring barley, Hordeum vulgare)
Procedure, shortened: (§1)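 Species sown in silt loam and sprayed preemergence, or grown in peat-based medium to 2–18 cm (1- to 4-leaf stage) and sprayed postemergence, with compounds in non-phytotoxic solvent plus surfactant. Visual injury scored versus controls after 14–21 d in a controlled environment, 0 (no effect) to 100 (complete control).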

[2] = test system: blackgrass (Alopecurus myosuroides)
Procedure, shortened: as §1

[3] = test system: bluegrass (annual bluegrass, Poa annua)
Procedure, shortened: as §1

[4] = test system: chamomile (scentless chamomile, Matricaria inodora)
Procedure, shortened: as §1

[5] = test system: field poppy (Papaver rhoeas)
Procedure, shortened: as §1

[6] = test system: foxtail, green (green foxtail, Setaria viridis)
Procedure, shortened: as §1

[7] = test system: lambsquarters (Chenopodium album)
Procedure, shortened: as §1

[8] = test system: mustard, wild (wild mustard, Sinapis arvensis)
Procedure, shortened: as §1

[9] = test system: oilseed rape (Brassica napus)
Procedure, shortened: as §1

[10] = test system: ryegrass, Italian (Italian ryegrass, Lolium multiflorum)
Procedure, shortened: as §1

[11] = test system: speedwell (bird's-eye speedwell, Veronica persica)
Procedure, shortened: as §1

[12] = test system: wheat, spring (spring wheat, Triticum aestivum)
Procedure, shortened: as §1

[13] = test system: wheat, winter (winter wheat, Triticum aestivum)
Procedure, shortened: as §1

[14] = Postemergence, 31 g ai/ha, scale 0 to 100 (0 no effect, 100 complete control)
[15] = Postemergence, 125 g ai/ha, visual rating on scale 0 (no effect) to 100 (complete control), 14 to 21 d
[16] = Postemergence, 250 g ai/ha, scale 0 to 100 (0 no effect, 100 complete control)
[17] = Preemergence, 62 g ai/ha, scale 0 to 100 (0 no effect, 100 complete control)
[18] = Preemergence, 125 g ai/ha, scale 0 to 100 (0 no effect, 100 complete control)
[19] = Preemergence, 250 g ai/ha, scale 0 to 100 (0 no effect, 100 complete control)
[20] = postemergence, 62 g ai/ha, scale 0 to 100, 0 no effect, 100 complete control

Cc1ccc2sc(C)c(-c3c(O)c(C)nn(C)c3=O)c2c1 [Compound 1, 4-(2,5-dimethylbenzo[b]thien-3-yl)-5-hydroxy-2,6-dimethyl-3(2H)-pyridazinone]
Plant response rating, Barley, Spring [1, 14]: 0 | Plant response rating, Barley, Spring [1, 15]: 5 | Plant response rating, Barley, Spring [1, 16]: 10 | Plant response rating (scale of 0 to 100), Barley, Spring ([1]; Preemergence, 31 g ai/ha): 0 | Plant response rating, Barley, Spring [1, 17]: 0 | Plant response rating, Barley, Spring [1, 18]: 10 | Barley, Spring plant response rating [1, 19]: 15 | Plant response rating, Barley, Spring [1, 20]: 5 | Blackgrass plant response rating [2, 14]: 40 | Plant response rating, Blackgrass [2, 15]: 70 | Plant response rating, Blackgrass [2, 16]: 80 | Plant response rating (scale of 0 to 100), Blackgrass ([2]; Preemergence, 31 g ai/ha): 35 | Plant response rating, Blackgrass [2, 17]: 70 | Plant response rating, Blackgrass [2, 18]: 85 | Blackgrass plant response rating [2, 19]: 90 | Plant response rating, Blackgrass [2, 20]: 50 | Bluegrass plant response rating [3, 14]: 0 | Plant response rating, Bluegrass [3, 15]: 5 | Plant response rating, Bluegrass [3, 16]: 5 | Plant response rating (scale of 0 to 100), Bluegrass ([3]; Preemergence, 31 g ai/ha): 5 | Plant response rating, Bluegrass [3, 17]: 15 | Plant response rating, Bluegrass [3, 18]: 35 | Bluegrass plant response rating [3, 19]: 50 | Plant response rating, Bluegrass [3, 20]: 5 | Chamomile plant response rating [4, 14]: 65 | Plant response rating, Chamomile [4, 15]: 85 | Plant response rating, Chamomile [4, 16]: 100 | Plant response rating (scale of 0 to 100), Chamomile ([4]; Preemergence, 31 g ai/ha): 95 | Plant response rating, Chamomile [4, 17]: 95 | Plant response rating, Chamomile [4, 18]: 95 | Plant response rating, Chamomile [4, 19]: 90 | Plant response rating, Chamomile [4, 20]: 75 | Field Poppy plant response rating [5, 14]: 95 | Plant response rating, Field Poppy [5, 15]: 100 | Plant response rating, Field Poppy [5, 16]: 95 | Plant response rating (scale of 0 to 100), Field Poppy ([5]; Preemergence, 31 g ai/ha): 95 | Plant response rating, Field Poppy [5, 17]: 95 | Plant response rating, Field Poppy [5, 18]: 95 | Plant response rating, Field Poppy [5, 19]: 95 | Plant response rating, Field Poppy [5, 20]: 95 | Foxtail, Green plant response rating [6, 14]: 50 | Plant response rating, Foxtail, Green [6, 15]: 75 | Plant response rating, Foxtail, Green [6, 16]: 85 | Plant response rating (scale of 0 to 100), Foxtail, Green ([6]; Preemergence, 31 g ai/ha): 10 | Plant response rating, Foxtail, Green [6, 17]: 15 | Plant response rating, Foxtail, Green [6, 18]: 75 | Plant response rating, Foxtail, Green [6, 19]: 100 | Plant response rating, Foxtail, Green [6, 20]: 65 | Lambsquarters plant response rating [7, 14]: 75 | Plant response rating, Lambsquarters [7, 15]: 90 | Plant response rating, Lambsquarters [7, 16]: 100 | Plant response rating (scale of 0 to 100), Lambsquarters ([7]; Preemergence, 31 g ai/ha): 20 | Plant response rating, Lambsquarters [7, 17]: 100 | Plant response rating, Lambsquarters [7, 18]: 100 | Plant response rating, Lambsquarters [7, 19]: 100 | Plant response rating, Lambsquarters [7, 20]: 90 | Mustard, Wild plant response rating [8, 14]: 25 | Plant response rating, Mustard, Wild [8, 15]: 40 | Plant response rating, Mustard, Wild [8, 16]: 65 | Plant response rating (scale of 0 to 100), Mustard, Wild ([8]; Preemergence, 31 g ai/ha): 0 | Plant response rating, Mustard, Wild [8, 17]: 0 | Plant response rating, Mustard, Wild [8, 18]: 10 | Plant response rating, Mustard, Wild [8, 19]: 25 | Plant response rating, Mustard, Wild [8, 20]: 30 | Oilseed Rape plant response rating [9, 14]: 0 | Plant response rating, Oilseed Rape [9, 15]: 35 | Plant response rating, Oilseed Rape [9, 16]: 60 | Plant response rating (scale of 0 to 100), Oilseed Rape ([9]; Preemergence, 31 g ai/ha): 0 | Plant response rating, Oilseed Rape [9, 17]: 0 | Plant response rating, Oilseed Rape [9, 18]: 5 | Plant response rating, Oilseed Rape [9, 19]: 20 | Plant response rating, Oilseed Rape [9, 20]: 15 | Ryegrass, Italian plant response rating [10, 14]: 65 | Plant response rating, Ryegrass, Italian [10, 15]: 85 | Plant response rating, Ryegrass, Italian [10, 16]: 85 | Plant response rating (scale of 0 to 100), Ryegrass, Italian ([10]; Preemergence, 31 g ai/ha): 100 | Plant response rating, Ryegrass, Italian [10, 17]: 100 | Plant response rating, Ryegrass, Italian [10, 18]: 100 | Plant response rating, Ryegrass, Italian [10, 19]: 100 | Plant response rating, Ryegrass, Italian [10, 20]: 75 | Speedwell plant response rating [11, 14]: 25 | Plant response rating, Speedwell [11, 15]: 60 | Plant response rating, Speedwell [11, 16]: 70 | Plant response rating (scale of 0 to 100), Speedwell ([11]; Preemergence, 31 g ai/ha): 70 | Plant response rating, Speedwell [11, 17]: 50 | Plant response rating, Speedwell [11, 19]: 95 | Plant response rating, Speedwell [11, 20]: 55 | Wheat, Spring plant response rating [12, 14]: 0 | Plant response rating, Wheat, Spring [12, 15]: 10 | Plant response rating, Wheat, Spring [12, 16]: 15 | Plant response rating (scale of 0 to 100), Wheat, Spring ([12]; Preemergence, 31 g ai/ha): 0 | Plant response rating, Wheat, Spring [12, 17]: 0 | Plant response rating, Wheat, Spring [12, 18]: 0 | Plant response rating, Wheat, Spring [12, 19]: 10 | Plant response rating, Wheat, Spring [12, 20]: 0 | Wheat, Winter plant response rating [13, 14]: 0 | Plant response rating, Wheat, Winter [13, 15]: 0 | Plant response rating, Wheat, Winter [13, 16]: 5 | Plant response rating (scale of 0 to 100), Wheat, Winter ([13]; Preemergence, 31 g ai/ha): 0 | Plant response rating, Wheat, Winter [13, 17]: 0 | Plant response rating, Wheat, Winter [13, 18]: 5 | Plant response rating, Wheat, Winter [13, 19]: 5 | Plant response rating, Wheat, Winter [13, 20]: 0
